From ChEMBL document CHEMBL5634121, “Discovery of novel G9a/GLP covalent inhibitors for the treatment of triple-negative breast cancer” (Eur J Med Chem, 2023)

Legend:
[1] = molecular target: T1, Histone-lysine N-methyltransferase EHMT1 (Homo sapiens, UniProt Q9H9B1); test: Inhibition of GLP (unknown origin)
T1 sequence (Q9H9B1 whole entry): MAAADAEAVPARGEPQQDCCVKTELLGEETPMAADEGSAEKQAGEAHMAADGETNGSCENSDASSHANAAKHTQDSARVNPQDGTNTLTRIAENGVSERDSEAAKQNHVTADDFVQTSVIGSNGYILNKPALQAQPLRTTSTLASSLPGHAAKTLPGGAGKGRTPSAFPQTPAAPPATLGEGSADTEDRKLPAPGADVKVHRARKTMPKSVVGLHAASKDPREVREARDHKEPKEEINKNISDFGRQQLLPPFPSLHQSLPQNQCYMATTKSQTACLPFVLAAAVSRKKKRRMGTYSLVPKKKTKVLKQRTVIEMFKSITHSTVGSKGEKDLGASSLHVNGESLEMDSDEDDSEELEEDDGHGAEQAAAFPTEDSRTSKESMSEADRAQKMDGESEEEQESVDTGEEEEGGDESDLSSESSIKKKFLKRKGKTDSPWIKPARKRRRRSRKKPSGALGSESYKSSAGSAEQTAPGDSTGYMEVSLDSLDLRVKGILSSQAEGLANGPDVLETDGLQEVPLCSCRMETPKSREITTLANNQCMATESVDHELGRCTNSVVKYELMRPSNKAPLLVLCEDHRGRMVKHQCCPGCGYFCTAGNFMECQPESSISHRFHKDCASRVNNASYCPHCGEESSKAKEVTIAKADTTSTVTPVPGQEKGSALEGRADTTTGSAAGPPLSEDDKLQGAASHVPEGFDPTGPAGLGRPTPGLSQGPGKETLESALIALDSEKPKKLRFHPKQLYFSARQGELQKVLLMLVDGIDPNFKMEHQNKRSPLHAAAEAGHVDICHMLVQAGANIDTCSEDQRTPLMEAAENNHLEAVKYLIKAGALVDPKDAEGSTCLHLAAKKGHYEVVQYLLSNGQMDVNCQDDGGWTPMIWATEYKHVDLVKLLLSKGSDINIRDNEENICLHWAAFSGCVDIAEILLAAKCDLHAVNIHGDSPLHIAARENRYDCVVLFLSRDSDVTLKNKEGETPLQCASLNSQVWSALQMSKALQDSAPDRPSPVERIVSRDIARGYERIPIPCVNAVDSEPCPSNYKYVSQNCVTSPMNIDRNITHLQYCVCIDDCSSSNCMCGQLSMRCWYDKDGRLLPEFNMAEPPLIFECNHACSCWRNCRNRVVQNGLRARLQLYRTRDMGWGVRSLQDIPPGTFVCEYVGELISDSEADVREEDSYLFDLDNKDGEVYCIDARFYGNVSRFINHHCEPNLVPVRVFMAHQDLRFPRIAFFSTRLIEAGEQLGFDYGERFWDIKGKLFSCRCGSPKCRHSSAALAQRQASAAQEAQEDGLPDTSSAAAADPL

MDA-MB-231 [2] = test: Induction of apoptosis in human MDA-MB-231 cells assessed as viable cells at 20 uM incubated for 72 hrs by Annexin V and PI staining based flow cytometry analysis (reference value: 98.31 %); assay type: functional; conditions: read-out: Activity
MDA-MB-231 [3] = test: Induction of apoptosis in human MDA-MB-231 cells assessed as late apoptotic cells at 10 uM incubated for 72 hrs by Annexin V and PI staining based flow cytometry analysis (reference value: 0.45 %); assay type: functional
MDA-MB-231 [4] = test: Induction of apoptosis in human MDA-MB-231 cells assessed as necrotic cells at 10 uM incubated for 72 hrs by Annexin V and PI staining based flow cytometry analysis (reference value: 0.32 %); assay type: functional
MDA-MB-231 [5] = test: Induction of cell cycle arrest in human MDA-MB-231 cells assessed as accumulation of cells at G2/M phase incubated for 72 hrs by PI/RNase staining based flow cytometric analysis; assay type: functional; conditions: dose 5-20 µM
MDA-MB-231 [6] = test: Antiproliferative activity against human MDA-MB-231 cells at 1 to 5 nM by MTT assay; assay type: functional, cell-based; conditions: dose 1-5 nM, time 3-5 day, TDE = time-dependent effect
MDA-MB-231 [7] = test: Induction of apoptosis in human MDA-MB-231 cells assessed as viable cells at 10 uM incubated for 72 hrs by Annexin V and PI staining based flow cytometry analysis (reference value: 98.31 %); assay type: functional; conditions: read-out: Activity
MDA-MB-231 [8] = test: Induction of apoptosis in human MDA-MB-231 cells assessed as necrotic cells at 20 uM incubated for 72 hrs by Annexin V and PI staining based flow cytometry analysis (reference value: 0.32 %); assay type: functional
[9] = AUC(0 to t) in ICR mouse at 2 mg/kg, iv measured upto 12 hrs by LC-MS/MS analysis; assay type: ADME, organism-based; conditions: in vivo
MDA-MB-231 [10] = test: Induction of apoptosis in human MDA-MB-231 cells assessed as necrotic cells at 5 uM incubated for 72 hrs by Annexin V and PI staining based flow cytometry analysis (reference value: 0.32 %); assay type: functional
[11] = Cmax in ICR mouse at 2 mg/kg, iv measured upto 12 hrs by LC-MS/MS analysis; assay type: ADME, organism-based; conditions: in vivo
4T1 = test: Antiproliferative activity against mouse 4T1 cells incubated for 3 to 5 days by MTT assay; assay type: functional, cell-based; conditions: Mus musculus, 4T1; read-out: IC50
MDA-MB-231 [12] = test: Antiproliferative activity against human MDA-MB-231 cells after 5 days by MTT assay; assay type: functional, cell-based; conditions: MDA-MB-231, 120 h
MDA-MB-231 [13] = test: Induction of apoptosis in human MDA-MB-231 cells assessed as early apoptotic cells at 5 uM incubated for 72 hrs by Annexin V and PI staining based flow cytometry analysis (reference value: 0.92 %); assay type: functional
[14] = Mean residence time in ICR mouse at 2 mg/kg, iv measured upto 12 hrs by LC-MS/MS analysis; assay type: ADME, organism-based; conditions: in vivo
[15] = Tmax in ICR mouse at 2 mg/kg, iv measured upto 12 hrs by LC-MS/MS analysis; assay type: ADME, organism-based; conditions: in vivo
[16] = AUC(0 to infinity) in ICR mouse at 2 mg/kg, iv measured upto 12 hrs by LC-MS/MS analysis; assay type: ADME, organism-based; conditions: in vivo
MDA-MB-231 [17] = test: Induction of apoptosis in human MDA-MB-231 cells assessed as late apoptotic cells at 20 uM incubated for 72 hrs by Annexin V and PI staining based flow cytometry analysis (reference value: 0.45 %); assay type: functional
MDA-MB-231 [18] = test: Induction of apoptosis in human MDA-MB-231 cells assessed as viable cells at 5 uM incubated for 72 hrs by Annexin V and PI staining based flow cytometry analysis (reference value: 98.31 %); assay type: functional; conditions: read-out: Activity
[19] = Cytotoxicity against human L02 cells assessed as reduction in cell viability incubated for 2 days by MTT assay; assay type: toxicity, cell-based
[20] = molecular target: Histone-lysine N-methyltransferase EHMT1/EHMT2 (Homo sapiens) (UniProt Q9H9B1+Q96KQ7); test: Inhibition of G9a/GLP in human MDA-MB-231 cells assessed as reduction in H3K9 dimethylation incubated for 3 days by Western blotting analysis; assay type: cell-based; conditions: dose 2.5-20 µM, time 3.0 day
MDA-MB-231 [21] = test: Induction of apoptosis in human MDA-MB-231 cells assessed as early apoptotic cells at 10 uM incubated for 72 hrs by Annexin V and PI staining based flow cytometry analysis (reference value: 0.92 %); assay type: functional

Histone-lysine N-methyltransferase EHMT1/EHMT2 (Homo sapiens), sequence (Q96KQ7 whole entry, looked up, one chain of several): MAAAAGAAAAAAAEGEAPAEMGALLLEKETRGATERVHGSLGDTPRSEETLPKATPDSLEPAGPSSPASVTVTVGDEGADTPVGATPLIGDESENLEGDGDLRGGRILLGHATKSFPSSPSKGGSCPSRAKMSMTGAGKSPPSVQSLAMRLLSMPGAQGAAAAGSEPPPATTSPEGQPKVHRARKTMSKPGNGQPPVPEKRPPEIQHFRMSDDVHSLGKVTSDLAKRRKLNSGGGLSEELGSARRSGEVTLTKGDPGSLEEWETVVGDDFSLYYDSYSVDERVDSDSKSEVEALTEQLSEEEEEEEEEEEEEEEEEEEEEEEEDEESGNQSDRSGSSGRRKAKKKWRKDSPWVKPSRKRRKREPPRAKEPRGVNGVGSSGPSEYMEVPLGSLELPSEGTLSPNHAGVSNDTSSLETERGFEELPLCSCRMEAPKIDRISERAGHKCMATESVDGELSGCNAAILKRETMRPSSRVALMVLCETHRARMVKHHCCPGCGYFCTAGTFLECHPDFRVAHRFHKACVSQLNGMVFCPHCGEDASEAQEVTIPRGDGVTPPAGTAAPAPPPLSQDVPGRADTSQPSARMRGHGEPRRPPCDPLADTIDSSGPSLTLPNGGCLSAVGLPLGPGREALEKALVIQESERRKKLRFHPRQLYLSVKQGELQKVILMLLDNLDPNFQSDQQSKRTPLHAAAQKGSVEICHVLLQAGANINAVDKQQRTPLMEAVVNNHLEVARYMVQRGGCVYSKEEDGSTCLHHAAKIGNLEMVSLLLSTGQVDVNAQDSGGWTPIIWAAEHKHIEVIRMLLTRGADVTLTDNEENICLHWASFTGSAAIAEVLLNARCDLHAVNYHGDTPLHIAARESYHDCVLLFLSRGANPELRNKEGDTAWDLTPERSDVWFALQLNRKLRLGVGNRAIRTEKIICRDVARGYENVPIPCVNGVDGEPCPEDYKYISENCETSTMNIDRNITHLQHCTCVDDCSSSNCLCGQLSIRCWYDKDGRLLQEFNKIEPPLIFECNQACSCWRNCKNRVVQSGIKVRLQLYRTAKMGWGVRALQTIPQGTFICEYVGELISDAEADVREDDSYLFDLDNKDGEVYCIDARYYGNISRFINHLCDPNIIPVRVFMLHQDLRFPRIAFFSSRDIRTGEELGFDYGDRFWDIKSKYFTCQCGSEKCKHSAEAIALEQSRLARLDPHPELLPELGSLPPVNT

C=CC(=O)Nc1cccc(-c2nc(NC3CCN(C)CC3)c3cc(OC)c(OC)cc3n2)c1
IC50 [1]: 0.458 µM
viability at 20 µM (MDA-MB-231 [2]): 39.3%
Activity (MDA-MB-231 [3]): 5.89%
Activity (MDA-MB-231 [4]): 1.28%
Activity (MDA-MB-231 [5]): Dose-Dependent Effect
Activity (MDA-MB-231 [6]): Tde
viability at 10 µM (MDA-MB-231 [7]): 89.1%
Activity (MDA-MB-231 [8]): 4.23%
AUC(0-t) at 12 h [9]: 1650 ng·h/mL
Activity (MDA-MB-231 [10]): 0.93%
Cmax [11]: 911 ng/mL
IC50 (4T1): 4.67 µM
IC50 (MDA-MB-231 [12]): 0.598 µM
Activity (MDA-MB-231 [13]): 1.44%
MRT [14]: 2.3 h
Tmax [15]: 0.42 h
AUC(0-inf) [16]: 1690 ng·h/mL
Activity (MDA-MB-231 [17]): 34.86%
viability at 5 µM (MDA-MB-231 [18]): 94.6%
IC50 at 2 days [19]: 10.3 µM
inhibition [20]: Dose-Dependent Effect
Activity (MDA-MB-231 [21]): 3.7%
